{"source": "paper PMC8551148", "about": "“Identification and characterization of deschloro-chlorothricin obtained from a large natural product library targeting aurora A kinase in multiple myeloma” (Investigational New Drugs, 2020)", "molecular_target": "T1, Aurora A kinase (AURKA) (Homo sapiens, UniProt O14965)", "T1 sequence (O14965 1-403)": "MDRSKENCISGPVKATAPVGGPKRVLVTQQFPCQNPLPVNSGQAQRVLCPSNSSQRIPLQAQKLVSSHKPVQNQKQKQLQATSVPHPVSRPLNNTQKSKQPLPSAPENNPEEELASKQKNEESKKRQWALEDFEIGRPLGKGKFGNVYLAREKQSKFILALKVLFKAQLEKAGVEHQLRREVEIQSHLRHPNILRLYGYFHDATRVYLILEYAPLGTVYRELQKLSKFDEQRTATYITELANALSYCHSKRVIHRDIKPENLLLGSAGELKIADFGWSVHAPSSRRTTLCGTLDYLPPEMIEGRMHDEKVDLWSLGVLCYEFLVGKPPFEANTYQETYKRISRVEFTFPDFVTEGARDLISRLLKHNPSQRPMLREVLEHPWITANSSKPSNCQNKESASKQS", "test": "microscale thermophoresis with RED-NHS labelled purified AURKA ([…])", "assay_type": "binding", "data": [{"smiles": "COc1cccc(C)c1C(=O)O[C@@H]1C[C@H](O[C@H]2[C@H](O)C[C@H](O[C@@H]3CCC[C@H]4[C@H]3C=C[C@@H]3CCCC/C=C\\[C@H]5C=C(C(=O)O)[C@@H](C)C[C@@]56OC(=O)C(=C6O)OC(=O)[C@@]34C)O[C@@H]2C)O[C@H](C)[C@H]1O", "note": "[Compound 5, deschloro-chlorothricin]", "values": [{"measurement": "Kd", "result": 8.17, "unit": "µM"}]}]}
